Article PMC5557014 (Biochemical pharmacology, 2017)

Experiments:
HIV-1 RT L100I = conditions: Poly rC.dG [^3H]dGTP
[1] = biological target: T1, cellular DNA polymerase α (Homo sapiens, UniProt P09884); assay: Cellular DNA polymerase α assay; assay type: biochemical
T1 sequence (P09884 1-1462): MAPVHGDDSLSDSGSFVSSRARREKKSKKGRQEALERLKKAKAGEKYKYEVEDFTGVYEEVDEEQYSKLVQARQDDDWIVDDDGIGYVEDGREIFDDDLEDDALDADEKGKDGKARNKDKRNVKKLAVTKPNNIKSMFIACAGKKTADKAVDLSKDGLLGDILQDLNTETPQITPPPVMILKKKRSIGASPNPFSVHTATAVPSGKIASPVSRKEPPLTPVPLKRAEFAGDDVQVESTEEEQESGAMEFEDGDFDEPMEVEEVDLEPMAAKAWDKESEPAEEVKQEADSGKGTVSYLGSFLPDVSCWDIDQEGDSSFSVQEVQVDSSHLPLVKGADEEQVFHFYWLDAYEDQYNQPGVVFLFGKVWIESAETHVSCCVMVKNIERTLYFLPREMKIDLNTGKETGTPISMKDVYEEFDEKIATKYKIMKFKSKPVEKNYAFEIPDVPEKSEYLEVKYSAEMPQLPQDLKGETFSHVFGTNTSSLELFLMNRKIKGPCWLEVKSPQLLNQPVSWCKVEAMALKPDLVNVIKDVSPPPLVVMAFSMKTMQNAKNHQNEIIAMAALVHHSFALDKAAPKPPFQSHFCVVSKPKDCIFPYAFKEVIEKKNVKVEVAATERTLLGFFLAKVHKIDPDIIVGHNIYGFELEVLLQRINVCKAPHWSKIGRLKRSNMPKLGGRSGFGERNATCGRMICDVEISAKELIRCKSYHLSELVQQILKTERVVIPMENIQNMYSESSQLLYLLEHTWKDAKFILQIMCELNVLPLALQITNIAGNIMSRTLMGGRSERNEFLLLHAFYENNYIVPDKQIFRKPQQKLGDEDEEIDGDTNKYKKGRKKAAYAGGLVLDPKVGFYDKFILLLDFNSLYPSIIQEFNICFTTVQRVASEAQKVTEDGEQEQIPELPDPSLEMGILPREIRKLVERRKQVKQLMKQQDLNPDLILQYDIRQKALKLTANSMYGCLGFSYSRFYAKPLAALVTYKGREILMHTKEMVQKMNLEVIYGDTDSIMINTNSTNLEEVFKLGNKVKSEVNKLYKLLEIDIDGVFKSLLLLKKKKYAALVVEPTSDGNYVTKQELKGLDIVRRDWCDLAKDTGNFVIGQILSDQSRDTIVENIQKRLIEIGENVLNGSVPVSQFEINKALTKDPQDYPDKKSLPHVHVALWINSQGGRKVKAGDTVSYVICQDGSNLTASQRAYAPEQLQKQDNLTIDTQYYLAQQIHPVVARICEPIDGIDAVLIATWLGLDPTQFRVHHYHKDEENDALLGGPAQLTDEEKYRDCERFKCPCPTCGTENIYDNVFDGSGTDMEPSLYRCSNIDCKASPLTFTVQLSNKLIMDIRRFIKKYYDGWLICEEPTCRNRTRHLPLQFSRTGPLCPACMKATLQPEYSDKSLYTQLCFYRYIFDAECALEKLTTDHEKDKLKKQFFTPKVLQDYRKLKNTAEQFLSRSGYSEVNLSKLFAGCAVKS

HIV-1 RT K70Q = assay: Mutant HIV-1 RT assay K70Q; assay type: biochemical; conditions: Poly rC.dG [^3H]dGTP
HIV-1 RT M184V = assay: Mutant HIV-1 RT assay M184V; assay type: biochemical; conditions: Poly rC.dG [^3H]dGTP
HIV-1 RT [2] = biological target: T2, HIV-1 RT (Human immunodeficiency virus type 1 group M subtype B, UniProt P04585); assay: Gel-based HIV-1 RT-catalyzed DNA synthesis on heteropolymeric DNA; assay type: biochemical
HIV-1 RT M184V + E138K = assay: Mutant HIV-1 RT assay M184V + E138K; assay type: biochemical; conditions: Poly rC.dG [^3H]dGTP
HIV-1 RT E138K = assay: Mutant HIV-1 RT assay E138K; assay type: biochemical; conditions: Poly rC.dG [^3H]dGTP
HIV-1 RT [3] = biological target: T2, HIV-1 RT; assay: Site-specific Fe2+ footprinting, post-translocation trapping; assay type: binding
HIV-1 RT [4] = biological target: T2, HIV-1 RT; assay: HIV-1 RT assay with homopolymeric template/primers; assay type: biochemical; conditions: IC50 HIV-1 RT
HIV-1 RT V75I = assay: Mutant HIV-1 RT assay V75I; assay type: biochemical; conditions: Poly rC.dG [^3H]dGTP
HSV-1 DNA polymerase [5] = biological target: T3, HSV-1 DNA polymerase (Human herpesvirus 1, UniProt P04293); assay: biochemical; assay type: biochemical; conditions: varying dGTP, calf thymus DNA
T3 sequence (P04293 whole entry): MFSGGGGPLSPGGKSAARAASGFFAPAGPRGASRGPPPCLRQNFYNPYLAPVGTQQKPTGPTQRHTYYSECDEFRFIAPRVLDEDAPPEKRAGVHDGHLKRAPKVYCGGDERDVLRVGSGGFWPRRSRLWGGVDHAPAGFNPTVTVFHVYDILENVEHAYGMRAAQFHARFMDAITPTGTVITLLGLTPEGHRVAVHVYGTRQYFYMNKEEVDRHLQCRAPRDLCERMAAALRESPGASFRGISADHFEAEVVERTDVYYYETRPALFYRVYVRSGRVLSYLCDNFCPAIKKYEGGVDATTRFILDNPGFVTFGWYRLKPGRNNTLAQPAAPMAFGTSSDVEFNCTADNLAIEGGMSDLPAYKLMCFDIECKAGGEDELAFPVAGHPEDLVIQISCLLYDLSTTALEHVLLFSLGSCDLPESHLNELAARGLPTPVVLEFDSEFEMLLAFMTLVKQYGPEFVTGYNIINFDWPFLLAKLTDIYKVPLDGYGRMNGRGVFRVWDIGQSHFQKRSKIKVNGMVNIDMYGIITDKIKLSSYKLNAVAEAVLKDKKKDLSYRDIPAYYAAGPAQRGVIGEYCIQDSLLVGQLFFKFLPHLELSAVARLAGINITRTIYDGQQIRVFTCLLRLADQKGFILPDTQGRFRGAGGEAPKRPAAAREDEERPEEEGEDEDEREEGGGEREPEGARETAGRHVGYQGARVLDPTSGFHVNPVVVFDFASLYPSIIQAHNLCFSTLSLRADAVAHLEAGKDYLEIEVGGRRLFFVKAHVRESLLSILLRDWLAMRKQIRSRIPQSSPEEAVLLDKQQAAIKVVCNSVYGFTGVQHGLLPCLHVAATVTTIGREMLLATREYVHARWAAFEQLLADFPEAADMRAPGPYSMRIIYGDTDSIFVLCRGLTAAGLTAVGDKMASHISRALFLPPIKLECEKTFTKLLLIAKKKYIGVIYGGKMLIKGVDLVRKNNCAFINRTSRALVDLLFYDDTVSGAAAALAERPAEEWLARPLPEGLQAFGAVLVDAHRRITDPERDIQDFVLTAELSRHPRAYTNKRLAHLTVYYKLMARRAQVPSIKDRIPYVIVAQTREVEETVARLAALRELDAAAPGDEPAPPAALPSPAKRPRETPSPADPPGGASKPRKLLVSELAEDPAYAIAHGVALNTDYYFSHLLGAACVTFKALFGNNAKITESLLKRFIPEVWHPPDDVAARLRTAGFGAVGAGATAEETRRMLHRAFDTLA

HIV-1 RT [6] = biological target: T2, HIV-1 RT; assay: Kinetic analysis of HIV-1 RT inhibition; assay type: biochemical
HIV-1 RT F61A = assay: Mutant HIV-1 RT assay F61A; assay type: biochemical; conditions: Poly rC.dG [^3H]dGTP
HIV-1 RT Q151M = assay: Mutant HIV-1 RT assay Q151M; assay type: biochemical; conditions: Poly rC.dG [^3H]dGTP
HCMV DNA polymerase [7] = biological target: T4, HCMV DNA polymerase (Human cytomegalovirus, UniProt P08546); assay: HCMV DNA polymerase enzyme assay; assay type: biochemical; conditions: IC50 HCMV DNA pol, calf thymus DNA
T4 sequence (P08546 whole entry): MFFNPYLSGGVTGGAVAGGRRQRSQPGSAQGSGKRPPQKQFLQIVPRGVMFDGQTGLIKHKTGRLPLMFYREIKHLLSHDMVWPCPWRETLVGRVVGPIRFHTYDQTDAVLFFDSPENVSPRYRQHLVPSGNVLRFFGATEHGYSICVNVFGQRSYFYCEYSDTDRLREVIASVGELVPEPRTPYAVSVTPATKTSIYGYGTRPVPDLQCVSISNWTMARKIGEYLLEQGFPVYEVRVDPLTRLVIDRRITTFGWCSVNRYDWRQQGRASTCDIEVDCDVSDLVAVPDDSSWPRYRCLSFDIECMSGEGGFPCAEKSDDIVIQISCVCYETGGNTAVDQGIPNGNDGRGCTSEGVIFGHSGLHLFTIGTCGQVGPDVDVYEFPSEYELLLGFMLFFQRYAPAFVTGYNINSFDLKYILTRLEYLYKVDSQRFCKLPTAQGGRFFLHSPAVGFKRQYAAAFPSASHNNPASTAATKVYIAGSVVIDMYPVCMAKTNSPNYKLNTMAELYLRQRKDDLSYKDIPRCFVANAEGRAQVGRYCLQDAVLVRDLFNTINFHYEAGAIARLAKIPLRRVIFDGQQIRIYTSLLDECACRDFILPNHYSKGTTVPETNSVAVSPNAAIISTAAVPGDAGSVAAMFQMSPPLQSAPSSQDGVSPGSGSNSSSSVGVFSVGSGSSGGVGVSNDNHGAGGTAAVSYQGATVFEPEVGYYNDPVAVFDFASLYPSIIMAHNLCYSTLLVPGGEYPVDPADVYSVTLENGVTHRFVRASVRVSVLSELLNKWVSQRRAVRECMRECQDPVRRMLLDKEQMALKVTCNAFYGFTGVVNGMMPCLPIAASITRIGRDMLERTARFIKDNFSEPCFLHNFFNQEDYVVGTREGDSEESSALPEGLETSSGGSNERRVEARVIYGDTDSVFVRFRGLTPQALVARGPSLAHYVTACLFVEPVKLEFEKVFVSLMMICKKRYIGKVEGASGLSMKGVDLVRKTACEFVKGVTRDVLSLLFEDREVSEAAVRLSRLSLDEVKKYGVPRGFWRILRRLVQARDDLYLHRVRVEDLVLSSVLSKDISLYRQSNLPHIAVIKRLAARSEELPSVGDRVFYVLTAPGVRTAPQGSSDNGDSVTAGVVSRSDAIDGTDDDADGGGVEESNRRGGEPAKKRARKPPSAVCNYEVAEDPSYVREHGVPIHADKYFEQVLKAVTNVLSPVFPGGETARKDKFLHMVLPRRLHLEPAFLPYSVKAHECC

HIV-1 RT K70E = assay: Mutant HIV-1 RT assay K70E; assay type: biochemical; conditions: Poly rC.dG [^3H]dGTP
HSV-1 DNA polymerase [8] = biological target: T3, HSV-1 DNA polymerase; assay: HSV-1 DNA polymerase enzyme assay; assay type: biochemical; conditions: IC50 HSV-1 DNA pol, calf thymus DNA
HIV-1 RT Y181C = conditions: Poly rC.dG [^3H]dGTP
HIV-1 RT M184I = assay: Mutant HIV-1 RT assay M184I; assay type: biochemical; conditions: Poly rC.dG [^3H]dGTP
HCMV DNA polymerase [9] = biological target: T4, HCMV DNA polymerase; assay: Kinetic analysis of HCMV DNA polymerase inhibition; assay type: biochemical; conditions: varying dGTP, calf thymus DNA
HIV-1 RT Y115F = assay: Mutant HIV-1 RT assay Y115F; assay type: biochemical; conditions: Poly rC.dG [^3H]dGTP
HIV-1 RT K70R = assay: Mutant HIV-1 RT assay K70R; assay type: biochemical; conditions: Poly rC.dG [^3H]dGTP
[10] = biological target: cellular DNA polymerase β (Homo sapiens, UniProt P06746); assay: Cellular DNA polymerase β assay; assay type: biochemical
HIV-1 RT K103N = conditions: Poly rC.dG [^3H]dGTP
HIV-1 RT K65R = assay: Mutant HIV-1 RT assay K65R; assay type: biochemical; conditions: Poly rC.dG [^3H]dGTP
HIV-1 RT M184V + Y115F = assay: Mutant HIV-1 RT assay M184V + Y115F; assay type: biochemical; conditions: Poly rC.dG [^3H]dGTP
HIV-1 RT V106A = conditions: Poly rC.dG [^3H]dGTP

## Nc1nc2c(ncn2[C@@H]2CC[C@H](OC(C(=O)O)P(=O)(O)O)C2)c(=O)[nH]1 (mixture of isomers) [(L,D)-(±)G-α-CNP, cis-9-{4-[Carboxy(phosphono)methoxy]cyclopentan-1-yl}guanine]
HIV-1 RT L100I
  Fold-resistance compared to wild-type: 5.2 fold
[1]
  IC50: 477 ± 83 µM
HIV-1 RT K70Q
  Fold-resistance compared to wild-type: 0.7 fold
HIV-1 RT M184V
  Fold-resistance compared to wild-type: 8.7 fold
HIV-1 RT [2]
  IC50: 1.8 ± 1.1 µM
HIV-1 RT M184V + E138K
  Fold-resistance compared to wild-type: 6.1 fold
HIV-1 RT E138K
  Fold-resistance compared to wild-type: 0.9 fold
HIV-1 RT [3]
  EC50: 0.044 ± 0.002 µM
HIV-1 RT [4]; poly rA.dT, [^3H]dTTP
  IC50: 536 µM
HIV-1 RT [4]; poly rC.dG, [^3H]dGTP
  IC50: 0.62 ± 0.19 µM
HIV-1 RT V75I
  Fold-resistance compared to wild-type: 8.7 fold
HSV-1 DNA polymerase [5]; competitive model
  Ki: 0.521 µM
HSV-1 DNA polymerase [5]; mixed model enzyme inhibition
  Ki: 9.28 µM
HSV-1 DNA polymerase [5]; non-competitive model
  Ki: 4.17 µM
HSV-1 DNA polymerase [5]
  Most likely mode of inhibition: Non-competitive
  α (alpha-value), mixed model enzyme inhibition: 0.386
HIV-1 RT [6]; competitive model, varying dGTP, poly rC.dG
  Ki: 0.455 µM
HIV-1 RT [6]; competitive model, varying poly rC.dG
  Ki: 0.035 µM
HIV-1 RT [6]; mixed model enzyme inhibition, varying dGTP, poly rC.dG
  Ki: 0.944 µM
HIV-1 RT [6]; mixed model enzyme inhibition, varying poly rC.dG
  Ki: 0.832 µM
HIV-1 RT [6]; non-competitive model, varying dGTP, poly rC.dG
  Ki: 1.3 µM
HIV-1 RT [6]; non-competitive model, varying poly rC.dG
  Ki: 0.169 µM
HIV-1 RT [6]; varying dGTP, poly rC.dG
  Most likely mode of inhibition: Competitive
  α (alpha-value), mixed model enzyme inhibition: 1.799
HIV-1 RT [6]; varying poly rC.dG
  Most likely mode of inhibition: Non-competitive
  α (alpha-value), mixed model enzyme inhibition: 0.147
HIV-1 RT F61A
  Fold-resistance compared to wild-type: 79 fold
HIV-1 RT Q151M
  Fold-resistance compared to wild-type: 3.1 fold
HCMV DNA polymerase [7]; [^3H]dGTP
  IC50: 9.4 ± 0.2 µM
HCMV DNA polymerase [7]; [^3H]dTTP
  IC50: 16 ± 8 µM
HIV-1 RT K70E
  Fold-resistance compared to wild-type: 0.7 fold
HSV-1 DNA polymerase [8]; [^3H]dGTP
  IC50: 8 ± 6 µM
HSV-1 DNA polymerase [8]; [^3H]dTTP
  IC50: 32 ± 11 µM
HIV-1 RT Y181C
  Fold-resistance compared to wild-type: 5.2 fold
HIV-1 RT M184I
  Fold-resistance compared to wild-type: 19 fold
HCMV DNA polymerase [9]; competitive model
  Ki: 2.12 µM
HCMV DNA polymerase [9]; mixed model enzyme inhibition
  Ki: 9.2 µM
HCMV DNA polymerase [9]; non-competitive model
  Ki: 8.59 µM
HCMV DNA polymerase [9]
  Most likely mode of inhibition: Non-competitive
HCMV DNA polymerase [9]; listed as (D,L)-(−,+)-G-α-CNP
  α (alpha-value), mixed model enzyme inhibition: 0.904
HIV-1 RT Y115F
  Fold-resistance compared to wild-type: 2.3 fold
HIV-1 RT K70R
  Fold-resistance compared to wild-type: 2.6 fold
[10]
  IC50: 531 ± 5 µM
HIV-1 RT K103N
  Fold-resistance compared to wild-type: 1.1 fold
HIV-1 RT K65R
  Fold-resistance compared to wild-type: 2.1 fold
HIV-1 RT M184V + Y115F
  Fold-resistance compared to wild-type: 39 fold
HIV-1 RT V106A
  Fold-resistance compared to wild-type: 1.6 fold
